Data published in US9622474B2, “N-(substituted)-5-fluoro-4-imino-3-methyl-2-oxo-3,4-dihydropyrimidine-1(2H)-carboxylate derivatives” (Adama Makhteshim Ltd., priority 2012, dated 2017).

Key:
[1] = system: Mycosphaerella graminicola; Anamorph: Septoria tritici; Bayer Code SEPTTR; assay: Fungicidal activity vs. leaf blotch of wheat (SEPTTR), three-day curative (3DC); format: in vivo, Septoria tritici on wheat plants (variety Yuma); conditions: rating of % disease control vs untreated, inoculated plants
Experimental: (§1) Example A: Evaluation of Fungicidal Activity: Leaf Blotch of Wheat (Mycosphaerella graminicola; Anamorph: Septoria tritici; Bayer Code SEPTTR):
(§2) Wheat plants (variety Yuma) were grown from seed in a greenhouse in 50% mineral soil/50% soil-less Metro mix until the first leaf was fully emerged, with 7-10 seedlings per pot. These plants were inoculated with an aqueous spore suspension of Septoria tritici either prior to or after fungicide treatments. After inoculation the plants were kept in 100% relative humidity (one day in a dark dew chamber followed by two to three days in a lighted dew chamber) to permit spores to germinate and infect the leaf. The plants were then transferred to a greenhouse for disease to develop.
(§3) The following table presents the activity of typical compounds of the present disclosure when evaluated in these experiments. The effectiveness of the test compounds in controlling disease was determined by assessing the severity of disease on treated plants, then converting the severity to percent control based on the level of disease on untreated, inoculated plants.

[2] = system: Mycosphaerella graminicola; Anamorph: Septoria tritici; Bayer Code SEPTTR; assay: Fungicidal activity vs. leaf blotch of wheat (SEPTTR), one-day protectant (1DP); format: in vivo, Septoria tritici on wheat plants (variety Yuma); conditions: rating of % disease control vs untreated, inoculated plants
Experimental: as §1, §2, §3

SMILES | SEPTTR 100 PPM 3DC [1] | SEPTTR 100 PPM 1DP [2] | melting point
Cn1c(=N)c(F)cn(C(=O)Oc2ccccc2)c1=O [Compound 4] | A (76-100) | A (76-100) | 86.4 to 87.6 °C
Cc1ccc(OC(=O)n2cc(F)c(=N)n(C)c2=O)cc1 [Compound 3] | A (76-100) | A (76-100) | 109 to 110.2 °C
COc1ccc(OC(=O)/N=c2/c(F)cn(C(=O)Oc3ccc(OC)cc3)c(=O)n2C)cc1 [Compound 2] | A (76-100) | A (76-100) | 161.8 to 165.6 °C
COc1ccc(OC(=O)n2cc(F)c(=N)n(C)c2=O)cc1 [Compound 1, 4-methoxyphenyl 5-fluoro-4-imino-3-methyl-2-oxo-3,4-dihydropyrimidine-1(2H)-carboxylate] | A (76-100) | A (76-100) | 135.6 to 137.1 °C
